# What was measured:
# [1] = system: Zein; test: Zein Test, irritation potential of surfactants / cleansing formulations by amount of zein solubilized; set-up: species or system corn; conditions: anionic cleanser, FIG. 3
# Description: Surfactants of the current invention were tested for their ability to reduce the irritation potential of cleansing formulations. We used the Zein Test [referenced in J. Surfact.
# The Zein test is intended for determining the irritation potential of a surfactant or surfactant-based product. Zein, a corn protein similar to keratin present in the skin and hair, is insoluble in water unless it is denatured by an irritant. In this test, the irritant is a surfactant or surfactant-based product, and irritation potential is predicted by the amount of zein solubilized.
# [2] = Salt curves, viscosity build in cleansing formulations (SLS- or AOS-based blends); type: physicochemical; conditions: incorporated into typical cleansing formulations with SLS or AOS, cocamidopropyl betaine, cocamide MEA; salt curves FIGS. 1 and 2
# Description: The generalized cleansing formulations are shown in Table 1, where various anionic surfactants, or blends of anionic surfactants, were added to a betaine and an alkanolamide surfactant and water. The balance of the weight in these formulas is water. […] Salts curves were generated for both sulfate-free blends based on AOS, Sodium C14-16 Olefin Sulfonate (FIG. 2), as well as sodium lauryl sulfate-based blends (FIG. 1). The salt curves in FIG. 1 are for the following: 1) Sodium Lauryl Sulfate (SLS) alone: 2) Sodium Lauryl Sulfate:Water, 2:1; 3) Sodium Lauryl Sulfate:Disodium Laurylglucosides Hydroxypropyl Citrate 2:1; and 4) Sodium Lauryl Sulfate:Disodium Laurylglucosides Hydroxypropyl Citrate, 1:1. The salt curves in FIG. 2 are for the following: 1) Sodium C14-16 Olefin Sulfonate (AOS) alone: 2) Sodium C14-16 Olefin Sulfonate:Water, 2:1; 3) Sodium C14-16 Olefin Sulfonate:Disodium Laurylglucosides Hydroxypropyl Citrate, 2:1; and 4) Sodium C14-16 Olefin Sulfonate:Disodium Laurylglucosides Hydroxypropyl Citrate, 1:1. [table] […] Some formulations can achieve desired viscosity levels without any added salt, meeting the demand for that type of claim by some shampoo manufacturers.
substance,measurement,setting,value
Disodium Laurylglucosides Hydroxypropyl Citrate,irritation potential in cleansing formulations (Zein Test),[1],effective at reducing irritation potential
same,viscosity build,[2],fast and high viscosity build
